Test results as given in patent US8927571B2, “Pyrido[4,3-B]indoles and methods of use” (Medivation Technologies, Inc., priority 2009, dated 2015).

How the values were obtained:
[1] = target: T1, human recombinant adrenergic α2A receptor (Homo sapiens, UniProt P08913); test: Adrenergic α2A radioligand binding assay ([3H]MK-912); settings: 1 nM [3H]MK-912, read-out: Percent Inhibition of ligand binding, Adrenergic (1 μM) α2A
T1 construct: expressed in transfected cells; host or cells: insect Sf9 cells
T1 sequence (P08913 1-465): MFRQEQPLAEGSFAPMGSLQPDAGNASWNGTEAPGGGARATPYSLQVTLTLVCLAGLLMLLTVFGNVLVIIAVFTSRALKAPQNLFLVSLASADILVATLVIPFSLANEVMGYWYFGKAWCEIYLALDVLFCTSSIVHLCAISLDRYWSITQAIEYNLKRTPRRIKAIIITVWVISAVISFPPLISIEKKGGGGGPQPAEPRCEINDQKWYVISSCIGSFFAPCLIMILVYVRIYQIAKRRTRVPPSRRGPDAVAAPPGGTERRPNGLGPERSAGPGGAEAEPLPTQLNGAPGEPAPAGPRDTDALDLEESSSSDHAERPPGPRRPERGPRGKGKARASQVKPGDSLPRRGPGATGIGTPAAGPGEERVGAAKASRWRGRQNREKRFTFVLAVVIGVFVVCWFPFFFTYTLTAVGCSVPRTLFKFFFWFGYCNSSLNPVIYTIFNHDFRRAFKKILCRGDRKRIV
Protocol: To evaluate in radioligand binding assays the activity of compounds of the invention, human recombinant adrenergic α2A receptor expressed in insect Sf9 cells (Uhlen S et al. J. Pharmacol. Exp. Ther. 271:1558, 1994) in a modified Tris-HCl buffer (50 mM Tris-HCl, pH 7.4, 12.5 mM MgCl2, 2 mM EDTA) was used. Compounds of invention were incubated with 1 nM [^3H]MK-912 for 60 min at 25° C. MK912 is (2S-trans)-1,3,4,5′,6,6′,7,12b-octahydro-1′,3′-dimethyl-spiro[2H-benzofuro[2,3-a]quinolizine-2,4′(1′H)-pyrimidin]-2′(3′H)-one hydrochloride Non-specific binding was estimated in the presence of 10 μM WB-4101 (2-(2,6-dimethoxyphenoxyethyl) aminomethyl-1,4-benzodioxane hydrochloride). Receptor proteins were filtered and washed, the filters were then counted to determine [^3H]MK-912 specifically bound. Compounds were screened at 1 μM or lower, using 1% DMSO as vehicle. Biochemical assay results are presented as the percent inhibition of specific binding in Table 3.

[2] = target: T2, human recombinant adrenergic α2B receptor (Homo sapiens, UniProt P18089); test: Adrenergic α2B radioligand binding assay ([3H]Rauwolscine); settings: 2.5 nM [3H]Rauwolscine, read-out: Percent Inhibition of ligand binding, Adrenergic (1 μM) α2B
T2 construct: expressed in transfected cells; host or cells: Chinese hamster ovary (CHO-K1) cells
T2 sequence (P18089 1-450): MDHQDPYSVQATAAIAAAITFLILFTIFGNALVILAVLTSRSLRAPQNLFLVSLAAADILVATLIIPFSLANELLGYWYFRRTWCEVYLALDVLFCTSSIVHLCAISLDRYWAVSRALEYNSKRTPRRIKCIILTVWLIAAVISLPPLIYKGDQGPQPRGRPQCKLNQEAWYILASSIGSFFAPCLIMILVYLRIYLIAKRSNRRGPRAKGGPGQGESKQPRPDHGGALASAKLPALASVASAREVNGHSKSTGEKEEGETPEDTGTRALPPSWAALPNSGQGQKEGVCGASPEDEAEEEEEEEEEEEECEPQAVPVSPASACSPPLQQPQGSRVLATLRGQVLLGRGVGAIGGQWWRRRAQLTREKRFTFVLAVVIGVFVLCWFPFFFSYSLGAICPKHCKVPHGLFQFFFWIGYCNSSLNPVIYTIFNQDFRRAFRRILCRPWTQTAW
Protocol: To evaluate in radioligand binding assays the activity of compounds of the invention, human recombinant adrenergic α2B receptor expressed in Chinese hamster ovary (CHO-K1) cells (Uhlen S et al. Eur. J. Pharmacol. 343(1):93, 1998) in a modified Tris-HCl buffer (50 mM Tris-HCl, pH 7.4, 12.5 mM MgCl2, 1 mM EDTA, 0.2% BSA) was used. Compounds of the invention were incubated with 2.5 nM [^3H]Rauwolscine for 60 min at 25° C. Non-specific binding was estimated in the presence of 10 μM Prozosin. Receptor proteins were filtered and washed, the filters were then counted to determine [^3H]Rauwolscine specifically bound. Compounds were screened at 1 μM or lower, using 1% DMSO as vehicle. Biochemical assay results are presented as the percent inhibition of specific binding in Table 3.

[3] = target: T3, human recombinant serotonin (5-Hydroxytryptamine) 5-HT2C receptor (Homo sapiens, UniProt P28335); test: Serotonin 5-HT2C radioligand binding assay ([3H]Mesulergine); settings: 1 nM [3H]Mesulergine, read-out: Percent Inhibition of ligand binding, Serotonin (1 μM) 5-HT2C
T3 construct: expressed in transfected cells; host or cells: Chinese hamster ovary (CHO-K1) cells
T3 sequence (P28335 33-458): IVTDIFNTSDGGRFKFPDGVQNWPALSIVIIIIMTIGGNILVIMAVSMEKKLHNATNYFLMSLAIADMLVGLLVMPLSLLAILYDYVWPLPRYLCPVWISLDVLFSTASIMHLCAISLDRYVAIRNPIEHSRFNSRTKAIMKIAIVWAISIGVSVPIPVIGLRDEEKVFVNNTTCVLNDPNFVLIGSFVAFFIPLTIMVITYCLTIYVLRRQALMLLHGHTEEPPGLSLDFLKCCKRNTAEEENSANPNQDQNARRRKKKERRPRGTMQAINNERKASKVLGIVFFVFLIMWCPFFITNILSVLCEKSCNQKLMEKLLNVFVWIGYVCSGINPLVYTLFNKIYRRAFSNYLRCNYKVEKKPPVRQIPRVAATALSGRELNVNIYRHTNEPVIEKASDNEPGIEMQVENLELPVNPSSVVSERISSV
Protocol: Compounds of the invention were incubated with 1 nM [^3H]Mesulergine for 60 min at 25° C. Non-specific binding was estimated in the presence of 1 μM Mianserin. Receptor proteins were filtered and washed, the filters were then counted to determine [^3H]Mesulergine specifically bound. Compounds were screened at 1 μM or lower, using 1% DMSO as vehicle. Biochemical assay results are presented as the percent inhibition of specific binding in Table 4.

[4] = target: T4, human recombinant histamine H2 receptor (Homo sapiens, UniProt P25021); test: Histamine H2 radioligand binding assay ([125I]Aminopotentidine); settings: percent inhibition of specific binding of 0.1 nM [125I]Aminopotentidine; compounds screened at 1 μM or lower
T4 construct: expressed in transfected cells; host or cells: Chinese hamster ovary (CHO) K1 cells
Protocol: To evaluate in radioligand binding assays the activity of compounds of the invention, human recombinant histamine H2 receptor expressed in Chinese hamster ovary (CHO) K1 cells (Ruat, M., Proc. Natl. Acad. Sci. USA. 87(5):1658, 1990) in a 50 mM Phosphate buffer, pH 7.4 was used. Compounds of the invention were incubated with 0.1 nM [^125I]Aminopotentidine for 120 min at 25° C. Non-specific binding was estimated in the presence of 3 μM Tiotidine. Receptor proteins were filtered and washed, the filters were then counted to determine [^125I]Aminopotentidine specifically bound. Compounds were screened at 1 μM or lower, using 1% DMSO as vehicle. Biochemical assay results are presented as the percent inhibition of specific binding in Table 2.

T4 sequence (P25021 whole entry): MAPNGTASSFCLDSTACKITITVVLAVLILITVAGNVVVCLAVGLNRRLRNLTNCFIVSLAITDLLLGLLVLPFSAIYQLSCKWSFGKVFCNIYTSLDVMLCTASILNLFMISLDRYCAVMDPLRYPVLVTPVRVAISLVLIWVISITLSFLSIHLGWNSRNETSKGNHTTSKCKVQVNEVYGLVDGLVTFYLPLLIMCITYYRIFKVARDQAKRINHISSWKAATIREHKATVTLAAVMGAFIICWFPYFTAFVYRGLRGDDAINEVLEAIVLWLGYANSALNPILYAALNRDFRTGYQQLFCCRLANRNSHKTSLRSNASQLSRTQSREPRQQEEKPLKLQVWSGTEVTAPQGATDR

Row | Structure (SMILES) | inhibition at 1 µM [1] | inhibition at 1 µM [2] | inhibition at 1 µM [3] | Binding Data (% Inhibition) Histamine Binding H2 [4]
1 | Cc1ccc2c(c1)c1c(n2CC(CC(=O)O)c2ccc(F)cc2)CCN(C)C1 (stereo not shown) [Compound 7, 4-(2,8-dimethyl-3,4-dihydro-1H-pyrido[4,3-b]indol-5(2H)-yl)-3-(4-fluorophenyl)butanoic acid] | 9% | 12% | 14% | 5%
2 | CCOC(=O)CC(Cn1c2c(c3cc(C)ccc31)CN(C)CC2)c1ccc(F)cc1 (stereo not shown) [Compound 6, ethyl 4-(2,8-dimethyl-3,4-dihydro-1H-pyrido[4,3-b]indol-5(2H)-yl)-3-(4-fluorophenyl)butanoate] | 95% | 95% | 93% | 86%
3 | Cc1ccc2c(c1)c1c(n2CC2(c3ccc(F)cc3)OCCO2)CCN(C)C1 [Compound 3, 5-((2-(4-fluorophenyl)-1,3-dioxolan-2-yl)methyl)-2,8-dimethyl-2,3,4,5-tetrahydro-1H-pyrido[4,3-b]indole] | 92% | 106% | 93% | 96%
4 | CN1CCc2c(c3cc(Cl)ccc3n2CC2(c3ccc(F)cc3)OCCO2)C1 [Compound 4, 8-chloro-5-((2-(4-fluorophenyl)-1,3-dioxolan-2-yl)methyl)-2-methyl-2,3,4,5-tetrahydro-1H-pyrido[4,3-b]indole] | 95% | 103% | 101% | 96%
5 | CN1CCc2c(c3cc(Cl)ccc3n2CC2(c3ccc(Cl)cc3)OCCO2)C1 [Compound 5, 8-chloro-5-((2-(4-chlorophenyl)-1,3-dioxolan-2-yl)methyl)-2-methyl-2,3,4,5-tetrahydro-1H-pyrido[4,3-b]indole] | 95% | 97% | 100% | 98%
6 | CNC(=O)CC(Cn1c2c(c3cc(C)ccc31)CN(C)CC2)c1ccc(F)cc1 (stereo not shown) [Compound 8, 4-(2,8-dimethyl-3,4-dihydro-1H-pyrido[4,3-b]indol-5(2H)-yl)-3-(4-fluorophenyl)-N-methylbutanamide] | 63% | 72% | 95% | 22%
7 | Cc1ccc2c(c1)c1c(n2CC2(c3ccccc3)OCCO2)CCN(C)C1 [Compound 2, 2,8-dimethyl-5-((2-phenyl-1,3-dioxolan-2-yl)methyl)-2,3,4,5-tetrahydro-1H-pyrido[4,3-b]indole] | 91% | 103% | 96% | 89%
